Assay results published in patent US8106055B2, “Substituted amide compounds” (Gruenenthal GmbH, priority 2007, dated 2012).

Tests used:
[1] = target: T1, human bradykinin 1 receptor (B1R) (Homo sapiens, UniProt P46663); assay: Functional investigation on the human bradykinin 1 receptor (B1R), Ca2+ FLIPR assay in CHO K1 hB1R cells; format: cell-based; settings: test substance 10 μM, Ca2+ FLIPR, CHO K1 hB1R cells; for inhibition at 10 µM: CHO-K1, B1R antagonism human, read-out: B1R Ant. h [10 μM] % Inhibition; for B1R Ant. h [10 μM] % Inhibition: B1R antagonism human
T1 construct: expressed in transfected cells; host or cells: CHO K1 cells
T1 sequence (P46663 1-353): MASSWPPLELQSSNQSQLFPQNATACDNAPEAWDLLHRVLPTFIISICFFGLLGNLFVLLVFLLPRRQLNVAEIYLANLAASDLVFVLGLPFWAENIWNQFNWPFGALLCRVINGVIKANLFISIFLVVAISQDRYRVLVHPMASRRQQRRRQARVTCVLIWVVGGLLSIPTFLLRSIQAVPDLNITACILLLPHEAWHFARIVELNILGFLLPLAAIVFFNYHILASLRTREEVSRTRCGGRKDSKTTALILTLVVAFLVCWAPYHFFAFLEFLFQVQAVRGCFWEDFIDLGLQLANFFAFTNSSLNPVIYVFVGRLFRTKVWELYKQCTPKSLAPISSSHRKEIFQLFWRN
Outline: (§1)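 Fluo-4 Ca2+ readout, peak fluorescence. Stable CHO K1 transfectants; compound pre-incubated 10-20 min, then EC80 agonist—Lys-Des-Arg9-BK for hB1R, Des-Arg9-BK for rB1R. % inhibition vs maximal inhibition; IC50 from multiple concentrations, duplicate/triplicate, ≥2 independent runs.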

[2] = target: T2, bradykinin 1 receptor (B1R) of the rat (Rattus norvegicus, UniProt P97583); assay: Functional investigation on the rat bradykinin 1 receptor (B1R), Ca2+ FLIPR assay in CHO K1 rB1R cells; format: cell-based; settings: test substance 10 μM, Ca2+ FLIPR, CHO K1 rB1R cells; for inhibition at 10 µM: CHO-K1, B1R antagonism rat, read-out: B1R Ant. r [10 μM] % Inhibition; for B1R Ant. r [10 μM] % Inhibition: B1R antagonism rat
T2 construct: expressed in transfected cells; host or cells: CHO K1 cells
T2 sequence (P97583 1-337): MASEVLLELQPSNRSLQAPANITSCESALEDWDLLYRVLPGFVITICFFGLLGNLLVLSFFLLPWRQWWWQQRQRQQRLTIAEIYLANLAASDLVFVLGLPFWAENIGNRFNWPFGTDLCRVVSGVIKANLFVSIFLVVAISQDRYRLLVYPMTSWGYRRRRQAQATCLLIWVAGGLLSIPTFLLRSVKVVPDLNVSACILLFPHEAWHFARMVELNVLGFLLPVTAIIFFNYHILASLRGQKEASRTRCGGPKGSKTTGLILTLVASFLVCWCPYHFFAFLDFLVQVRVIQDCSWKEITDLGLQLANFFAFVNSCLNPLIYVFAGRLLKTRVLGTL
Outline: as §1

Structure (SMILES) | inhibition at 10 µM [1] [%] | inhibition at 10 µM [2] [%] | B1R Ant. h [10 μM] % Inhibition [1] [%] | B1R Ant. r [10 μM] % Inhibition [2] [%]
CN(C)C(c1cccs1)C1CCC(CNC(=O)COCCN(C)S(=O)(=O)c2ccc(Cl)cc2Cl)CC1 (stereo not shown) [Example 8, 2-(2-(2,4-dichloro-N-methylphenylsulfonamido)ethoxy)-N-((4-((dimethylamino)(thiophen-2-yl)methyl)cyclohexyl)methyl)acetamide] | 101 | 62 | – | –
COc1ccc(S(=O)(=O)N2CCCCC2COCC(=O)NCCC2CCC(C(c3cccs3)N(C)C)CC2)cc1OC (stereo not shown) [Example 120, 2-((1-(3,4-dimethoxyphenylsulfonyl)piperidin-2-yl)methoxy)-N-(2-(4-((dimethylamino)(thiophen-2-yl)methyl)cyclohexyl)ethyl)acetamide] | -12 | -14 | – | –
COc1cc(C)c(S(=O)(=O)N(CCOCC(=O)NCCC2CCC(C(c3ccc(Cl)cc3)N(C)C)CC2)Cc2ccccc2)c(C)c1 (stereo not shown) [Example 569] | – | – | 14 | 9
COc1ccc(S(=O)(=O)N(C)CCOCC(=O)NC2CCC(C(c3ccc(F)cc3)N(C)C)CC2)cc1OC (stereo not shown) [Example 548] | – | – | 6 | 11
CN(C)C(c1cccs1)C1CCC(CNC(=O)COCCN(Cc2ccccc2)S(=O)(=O)c2ccccc2)CC1 (stereo not shown) [Example 102, 2-(2-(N-benzylphenylsulfonamido)ethoxy)-N-((4-((dimethylamino)(thiophen-2-yl)methyl)cyclohexyl)methyl)acetamide] | -4 | -12 | – | –
CN(C)C(c1ccc(F)cc1)C1CCC(CNC(=O)COC2CCN(S(=O)(=O)c3ccccc3)CC2)CC1 (stereo not shown) [Example 568] | – | – | −20 | 12
CN(C)C(CCc1ccccc1)C1CCC(CNC(=O)COC2CCN(S(=O)(=O)c3cccc(C(F)(F)F)c3)C2)CC1 (stereo not shown) [Example 552] | – | – | 49 | 26
COc1cc(C)c(S(=O)(=O)N2CCCC(OCC(=O)NCC3CCC(C(CCc4ccccc4)N(C)C)CC3)C2)c(C)c1C (stereo not shown) [Example 551] | – | – | 94 | 36
COc1ccc(S(=O)(=O)N2CCCC2COCC(=O)NCC2CCC(C(c3cccs3)N(C)C)CC2)cc1 (stereo not shown) [Example 105, N-((4-((dimethylamino)(thiophen-2-yl)methyl)cyclohexyl)methyl)-2-((1-(4-methoxyphenylsulfonyl)pyrrolidin-2-yl)methoxy)acetamide] | 33 | 24 | – | –
COc1cc(C)c(S(=O)(=O)N2CCC(CCOCC(=O)NCC3CCC(C(c4cccs4)N(C)C)CC3)CC2)c(C)c1C (stereo not shown) [Example 131, N-((4-((dimethylamino)(thiophen-2-yl)methyl)cyclohexyl)methyl)-2-(2-(1-(4-methoxy-2,3,6-trimethylphenylsulfonyl)piperidin-4-yl)ethoxy)acetamide] | 15 | -20 | – | –
COc1ccc(S(=O)(=O)N2CCCCC2COCC(=O)NCC2CCC(C(c3ccc(F)cc3)N(C)C)CC2)cc1OC (single isomer, unassigned) [Example 534] | – | – | −18 | −4
COc1cc(C)c(S(=O)(=O)N(CCOCC(=O)NCCC2CCC(C(c3ccc(F)cc3)N(C)C)CC2)Cc2ccccc2)c(C)c1 (stereo not shown) [Example 547] | – | – | 76 | 30
CN(C)C(c1cccs1)C1CCC(CCNC(=O)COC2CCCN(S(=O)(=O)c3ccccc3)C2)CC1 (stereo not shown) [Example 100, N-(2-(4-((dimethylamino)(thiophen-2-yl)methyl)cyclohexyl)ethyl)-2-(1-(phenylsulfonyl)piperidin-3-yloxy)acetamide] | -3 | 27 | – | –
COc1cc(C)c(S(=O)(=O)N(CCOCC(=O)NCCC2CCC(C(c3ccc(Cl)cc3)N(C)C)CC2)Cc2ccccc2)c(C)c1C (stereo not shown) [Example 576] | – | – | −6 | 3
CN(C)C(c1ccccc1)C1CCC(CNC(=O)COC2CCN(S(=O)(=O)c3cccc(C(F)(F)F)c3)C2)CC1 (stereo not shown) [Example 113, N-((4-((dimethylamino)(phenyl)methyl)cyclohexyl)methyl)-2-(1-(3-(trifluoromethyl)phenylsulfonyl)pyrrolidin-3-yloxy)acetamide] | -1 | 28 | – | –
CN(C)C(c1ccccc1)C1CCC(CNC(=O)COCCN(C)S(=O)(=O)c2ccc(F)cc2)CC1 (stereo not shown) [Example 112, N-((4-((dimethylamino)(phenyl)methyl)cyclohexyl)methyl)-2-(2-(4-fluoro-N-methylphenylsulfonamido)ethoxy)acetamide] | -1 | 5 | – | –
COc1ccc(S(=O)(=O)N2CCC(OCC(=O)NCC3CCC(C(CCc4ccccc4)N(C)C)CC3)C2)cc1OC (stereo not shown) [Example 566] | – | – | 1 | 22
CN(C)C(c1cccs1)C1CCC(CNC(=O)COC2CCN(S(=O)(=O)c3ccc(F)cc3)C2)CC1 (stereo not shown) [Example 97, N-((4-((dimethylamino)(thiophen-2-yl)methyl)cyclohexyl)methyl)-2-(1-(4-fluorophenylsulfonyl)pyrrolidin-3-yloxy)acetamide] | 1 | 28 | – | –
CN(C)C(c1cccs1)C1CCC(CNC(=O)COCC2CCCN(S(=O)(=O)c3ccccc3)C2)CC1 (stereo not shown) [Example 101, N-((4-((dimethylamino)(thiophen-2-yl)methyl)cyclohexyl)methyl)-2-((1-(phenylsulfonyl)piperidin-3-yl)methoxy)acetamide] | 0 | 27 | – | –
COc1ccc(S(=O)(=O)N2CCCCC2COCC(=O)NCCC2CCC(C(c3cccs3)N(C)C)CC2)c(OC)c1 (stereo not shown) [Example 107, 2-((1-(2,4-dimethoxyphenylsulfonyl)piperidin-2-yl)methoxy)-N-(2-(4-((dimethylamino)(thiophen-2-yl)methyl)cyclohexyl)ethyl)acetamide] | -4 | 49 | – | –
COc1cc(C)c(S(=O)(=O)N(C)CCOCC(=O)NC2CCC(C(c3cccs3)N(C)C)CC2)c(C)c1 (stereo not shown) [Example 111, N-(4-((dimethylamino)(thiophen-2-yl)methyl)cyclohexyl)-2-(2-(4-methoxy-N,2,6-trimethylphenylsulfonamido)ethoxy)acetamide] | 102 | 104 | – | –
COc1ccc(S(=O)(=O)N2CCCCC2COCC(=O)NCC2CCC(C(CCc3ccccc3)N(C)C)CC2)c(OC)c1 (stereo not shown) [Example 420] | – | – | −7 | 2
COc1ccc(S(=O)(=O)N2CCCC2COCC(=O)NCC2CCC(C(CCc3ccccc3)N(C)C)CC2)cc1 (stereo not shown) [Example 572] | – | – | 50 | 62
CN(C)C(CCc1ccccc1)C1CCC(CNC(=O)COC2CCN(S(=O)(=O)c3ccc(F)cc3)C2)CC1 (stereo not shown) [Example 574] | – | – | 2 | 26
CN(C)C(CCc1ccccc1)C1CCC(CNC(=O)COCC2CCCN(S(=O)(=O)c3ccccc3)C2)CC1 (stereo not shown) [Example 544] | – | – | 22 | 38
COc1ccc(S(=O)(=O)N2CCCCC2COCC(=O)NCC2CCC(C(c3cccs3)N(C)C)CC2)cc1OC (stereo not shown) [Example 133, 2-((1-(3,4-Dimethoxyphenylsulfonyl)piperidin-2-yl)methoxy)-N-((4-((dimethylamino)(thiophen-2-yl)methyl)cyclohexyl)methyl)acetamide] | -23 | 7 | – | –
COc1cc(C)c(S(=O)(=O)N2CCC(OCC(=O)NCC3CCC(C(CCc4ccccc4)N(C)C)CC3)CC2)c(C)c1C (stereo not shown) [Example 546] | – | – | 34 | 59
COc1ccc(S(=O)(=O)N(C)CCOCC(=O)NCCC2CCC(C(c3cccs3)N(C)C)CC2)cc1 (stereo not shown) [Example 128, N-(2-(4-((dimethylamino)(thiophen-2-yl)methyl)cyclohexyl)ethyl)-2-(2-(4-methoxy-N-methylphenylsulfonamido)ethoxy)acetamide] | 28 | 46 | – | –
COc1cc(C)c(S(=O)(=O)N(CCOCC(=O)NCC2CCC(C(c3ccc(Cl)cc3)N(C)C)CC2)Cc2ccccc2)c(C)c1C (stereo not shown) [Example 560] | – | – | 16 | −5
